Laboratory results from paper PMC12209990, “Effect of Cytochrome P450 3A Inhibition and Induction by Itraconazole and Rifampin on Tazemetostat Pharmacokinetics in Patients With Advanced Malignancies” (Clinical Pharmacology in Drug Development, 2025).

What was measured:
[1] = Safety (TEAEs) Part 1: tazemetostat coadministered with itraconazole; settings: human, in vivo
Method: Part 1 of the study evaluated the DDI between tazemetostat and itraconazole. On the mornings of Days 1 and 15, patients received a single dose of tazemetostat 400 mg orally. On Days 3‐14, patients received tazemetostat 400 mg twice daily (morning and evening). On Days 18‐20, patients received itraconazole 200 mg orally once daily in the morning. On Days 21‐35, tazemetostat 400 mg twice daily was coadministered in the morning with a single dose of itraconazole 200 mg. On Day 36, patients received a single dose of tazemetostat 400 mg coadministered in the morning with a single dose of itraconazole 200 mg. On Days 37 and 38, patients received a single dose of itraconazole 200 mg (Figure 1A). Throughout Part 1, administration of itraconazole occurred 1 hour after a meal.
(§1) Safety was assessed by monitoring treatment‐emergent adverse events (TEAEs) and vital signs, electrocardiography, and clinical laboratory tests. TEAEs were defined as adverse events that started or worsened in severity on or after the date of the first dose of the study drug through 30 days after the last dose. Treatment‐related TEAEs were summarized by each study drug for both study parts. Adverse events were coded using the Medical Dictionary for Regulatory Activities Version 23.1 and graded per Common Terminology Criteria for Adverse Events Version 5.0.

[2] = Safety (TEAEs) Part 2: tazemetostat coadministered with rifampin; settings: human, in vivo
Method: Part 2 of the study evaluated the DDI between tazemetostat and rifampin. On the mornings of Days 1 and 15, patients received a single dose of tazemetostat 800 mg orally. On Days 3‐14, patients received tazemetostat 800 mg twice daily. On Days 17‐23, patients received tazemetostat 800 mg twice daily, coadministered in the morning with a single dose of rifampin 600 mg orally. On the morning of Day 24, patients received a single dose of tazemetostat 800 mg coadministered with rifampin 600 mg. On the morning of Day 25, patients received rifampin 600 mg (Figure 1B). Throughout Part 2, administration of rifampin occurred 1 hour before a meal.
as §1

Row | Structure (SMILES) | Treatment-related TEAE Grade 3 or 4, related to the named study drug, patients [1] | Treatment-related TEAEs, related to the named study drug, patients [1] | Treatment-related TESAE, related to the named study drug, patients [1] | Treatment-related TEAE Grade 3 or 4, related to the named study drug, patients [2] | Treatment-related TEAEs, related to the named study drug, patients [2] | Treatment-related TESAE, related to the named study drug, patients [2]
1 | CCC(C)n1ncn(-c2ccc(N3CCN(c4ccc(OCC5COC(Cn6cncn6)(c6ccc(Cl)cc6Cl)O5)cc4)CC3)cc2)c1=O (stereo not drawn) [Itraconazole] | 1 (4.8) n (%) | 8 (38.1) n (%) | 0 n (%) | – | – | –
2 | CO[C@H]1/C=C/O[C@@]2(C)Oc3c(C)c(O)c4c(O)c(c(/C=N/N5CCN(C)CC5)c(O)c4c3C2=O)NC(=O)/C(C)=C\C=C\[C@H](C)[C@H](O)[C@@H](C)[C@@H](O)[C@@H](C)[C@H](OC(C)=O)[C@@H]1C [Rifampin] | – | – | – | 1 (4.8) n (%) | 8 (38.1) n (%) | 0 n (%)
